Laboratory results from patent US10054581B1, “Inhibitors of notch signaling pathway and use thereof in treatment of cancers” (Ecole Polytechnique Federale de Lausanne (EPFL), priority 2011, dated 2018).
Entries after “also recorded” stand apart in the source; their conditions may differ.

Tests used:
[1] = tested on: Hes1 in DND41-Parental cells; assay: Hes1 Western blot in DND41-Parental cells; format: cell-based, human; settings: 24 hours
Experimental: Cells were lysed in RIPA buffer (50 mM Tris.Cl, pH 7.5, 150 mM NaCl, 1% nonidet P-40, 0.5% sodium deoxycholate and 0.1% SDS) for 30 minutes at 4° C. Lysed cells were centrifuged to remove the debris at 14000 rpm at 4° C. Supernatant was transferred to a new eppendorf tube. The protein concentration was determined by Bradford assay using spectrophotometer (Ultrospec 3000 pro). 40 μg of protein were denatured in 1×SDS gel loading buffer (100 mM Tris.Cl, pH 6.8, 200 mM DTT, 4% SDS, 0.2% bromophenol, 20% glycerol) by heating at 99° C. for 5 minutes. Denatured protein samples were stored on ice until loading on to the acrylamide gel. The samples were run on 8% or 10% acrylamide gel in Tris-glycine electrophoresis buffer (25 mM Tris, 250 mM glycine, 0.1% SDS). […]
For immunoblotting, membranes were blocked with 5% milk and incubated overnight with primary antibodies at 4° C. […] Signal was detected with Super Signal West chemiluminescent substrate (Thermo Scientific, catalog number 34077).
6-(4-Tert-Butylphenoxy)Pyridin-3-Amine (I3) can block NICD mediated activation of the Notch pathway (FIGS. 1A-D). […] In addition, these two cell lines were also monitored over several days for anti-proliferative effects of 6-(4-Tert-Butylphenoxy)Pyridin-3-Amine (I3) and DAPT.

RPMI 8402 = assay: Alamar blue proliferation assay, RPMI 8402; format: cell-based, human; settings: 10 μM, up to 6 days
Experimental: (§1) Human T-ALL cell lines RPMI 8402 and KOPTK1, and pancreatic cancer cell line PANC1 as well as nRas driven melanoma cells were seeded in a 96 well plate and treated with 10 μM concentration of 6-(4-Tert-Butylphenoxy)Pyridin-3-Amine (I3) and DAPT for several days. Their growth inhibitory effects were compared with cells treated with equal amount of DMSO. Using Alamar blue assay, the growth kinetics of RPMI 8402 and KOPTK1 were followed for upto 6 days, while PANC1 and nRas melanoma cells were monitored for 4 days. 6-(4-Tert-Butylphenoxy)Pyridin-3-Amine (I3) treatment of RPMI 8402, KOPTK1. […] Statistical analyses were done using student's t.test. *=p value<0.05. ns=not significant.
(§2) Alamarblue® proliferation assays were performed to determine the growth kinetics of Notch inhibitor treated cells. Alamar Blue® consists of a cell permeable substrate resazurin. In metabolically active and proliferating cells, resazurin is converted to resorufin due to an intrinsic reducing power of live cells and produces a red fluorescence. Therefore production of resorufin serves as an indicator of the viability of the cell population.
(§3) Proliferation assays were performed by seeding 5000 cells/well in a 96 well plate. Cells were treated with DMSO or Notch inhibitors for different time intervals. […] Alamarblue readout was taken using Tecan F500 (Tecan) multiplate reader. […]

[2] = tested on: Notch2-intracellular domain (N2-ICD); assay: N2-ICD mediated pathway activation, luciferase reporter; format: cell-based
[3] = tested on: nRas driven melanoma cell lines; assay: Alamar blue proliferation assay, nRas driven melanoma cells; format: cell-based, human; settings: 10 μM, 4 days
Experimental: as §1, §2, §3

HPB ALL = assay: Annexin V apoptosis, HPB ALL; format: cell-based, human; settings: 10 μM, 7 days
Experimental: (§4) FIGS. 6A-6D show 6-(4-Tert-Butylphenoxy)Pyridin-3-Amine (I3) induces G0/G1 cell cycle arrest and apoptosis in human T cell acute lymphoblastic leukemia cell lines and human breast cancer cell line HCC1187. […] Percentage of Annexin V positive (apoptotic) cell population was measured using flow cytometry.
To quantitate the percentage of apoptotic cells, AnnexinV and 7AAD staining was performed. Thymic cells were suspended in 300 μl of 1× AnnexinV binding buffer (BD Biosciences, San Diego, USA) and incubated with 10 μl of AnnexinV-Cy5 antibody and 10 μl of 7AAD (BD Biosciences, San Diego, USA). Samples were incubated for 15 minutes at room temperature. FACS was performed with in one hour of antibody staining.
This 6-(4-Tert-Butylphenoxy)Pyridin-3-Amine (I3) mediated proliferative arrest could be due to induction of apoptosis or cell cycle arrest during different phases of cell cycle. […] Therefore to further elucidate the mechanisms responsible for 6-(4-Tert-Butylphenoxy)Pyridin-3-Amine (I3) mediated proliferative arrest cell cycle and apoptosis analyses were carried out. […] To investigate cell death, Annexin V staining was performed and proportion of apoptotic (AnnexinV positive) cell population was determined by flow cytometry analyses after 7 days of treatment.

KOPTK1 = assay: Cell cycle analysis (Ki67 and Hoechst stain), KOPTK1; format: cell-based, human; settings: 10 μM
Experimental: as §4
(§5) In addition to induction of apoptosis, the proliferative arrest observed in 6-(4-Tert-Butylphenoxy)Pyridin-3-Amine (I3) treated human leukemic cell lines and breast cancer cell line also appears to be due to cell cycle arrest in G0/G1 phase of the cell cycle. Leukemic cell lines (RPMI8402, KOPTK1 and TALL1) and breast cancer cell lines were treated with 6-(4-Tert-Butylphenoxy)Pyridin-3-Amine (I3) for 48 hours and cell cycle status was determined using Ki67 and Hoechst stain.

HCC1187 = assay: Cell cycle analysis (Ki67 and Hoechst stain), HCC1187; format: cell-based, human; settings: 10 μM, 48 hours
Experimental: as §4, §5

C[C@H](NC(=O)Cc1cc(F)cc(F)c1)C(=O)N[C@H](C(=O)OC(C)(C)C)c1ccccc1 [DAPT, N—[N-(3,5-difluorophenacetyl-Lalanyl)]-(S)-phenylglycine t-butyl ester, reference compound]
Hes1 protein [1]: led to a downregulation of Hes1; also recorded: caused a downregulation of Hes1 in DND41-Parental cells | proliferation (Alamar blue) (RPMI 8402): induced a significant proliferation block

CC(C)(C)c1ccc(Oc2ccc(N)cn2)cc1 [I3, 6-(4-Tert-Butylphenoxy)Pyridin-3-Amine]
pathway activation by N2-ICD [2]: could also block pathway activation by Notch1-intracellular domain (NICD) and Notch2-intracellular domain (N2-ICD); also recorded: inhibits pathway activation via intracellular domains of Notch1 (NICD) and Notch2 (N2-ICD) | Hes1 protein [1]: led to a downregulation of Hes1; also recorded: caused a downregulation of Hes1 in DND41-Parental cells | proliferation (Alamar blue) (RPMI 8402): induced a significant proliferation block; also recorded: caused a significant reduction in their growth potential | proliferation (Alamar blue) [3]: significantly inhibited the growth; also recorded: caused a significant reduction in their growth potential | apoptosis (Annexin V positive cells) (HPB ALL): induces significant apoptosis | cell cycle status (KOPTK1; 48 hours): induces an arrest in the G0/G1 phase of the cell cycle | increase in cells arrested in G0/G1 phase of the cell cycle (KOPTK1; stated jointly for RPMI8402, KOPTK1 and TALL1): 20-30% | cell cycle status (HCC1187): induces an arrest in the G0/G1 phase of the cell cycle
